Measured values published in patent US20120010241A1, “HSP90 INHIBITING INDAZOLE DERIVATIVES, COMPOSITIONS CONTAINING SAME AND USE THEREOF” (SANOFI, priority 2009, published 2012).

What was measured:
[1] = system: Her2 expression in SKBr3 cells; assay: phenotypic SKBr3/HER2 cell test (Her2 expression at the cell surface, flow cytometry); type: cell-based; details: Homo sapiens, SK-BR-3, incubation for 24 h, anti-Her2 antibody coupled to PE, FACS
Description: The cellular activity of the compounds can in particular be evaluated by means of the phenotypic “SKBr3/HER2” cell test described below:
The SKBr3 […] adenocarcinoma cells, overexpressing the Her2 tyrosine kinase receptor, originate from the ATCC (HTB-30) and are cultured in McCoy's 5A medium supplemented with 10% FBS and 1% L-glutamine.
The cells are seeded in 12-well plates at a proportion of 125 000 cells per well in 1 ml of complete medium. The following day, the products are added at varying concentrations. After incubation for 24 h, the cells are trypsinized, washed with PBS and incubated with 100 ng of anti-Her2 antibody coupled to PE (phycoerythrin) (BD 340552) for 30 minutes at 4° C. in the dark. The fluorescence due to the expression of the Her2 receptor at the surface of the cells is then read using a FACS Calibur flow cytometer (Becton-Dickinson). The percentage inhibition of Her2 expression as a function of the concentrations of product tested is fitted by the nonlinear regression technique (XLfit, equation 205) in order to measure the IC50 for each product.

Hsp82 = Hsp82 (Saccharomyces cerevisiae, UniProt P02829); assay: Hsp82/ATPase test (PK/LDH coupled spectrophotometric method; malachite green method also described); type: biochemical; details: 1 μM Hsp82, 250 μM ATP, 37° C., absorbance at 340 nm
Chain of Hsp82 (P02829 whole entry): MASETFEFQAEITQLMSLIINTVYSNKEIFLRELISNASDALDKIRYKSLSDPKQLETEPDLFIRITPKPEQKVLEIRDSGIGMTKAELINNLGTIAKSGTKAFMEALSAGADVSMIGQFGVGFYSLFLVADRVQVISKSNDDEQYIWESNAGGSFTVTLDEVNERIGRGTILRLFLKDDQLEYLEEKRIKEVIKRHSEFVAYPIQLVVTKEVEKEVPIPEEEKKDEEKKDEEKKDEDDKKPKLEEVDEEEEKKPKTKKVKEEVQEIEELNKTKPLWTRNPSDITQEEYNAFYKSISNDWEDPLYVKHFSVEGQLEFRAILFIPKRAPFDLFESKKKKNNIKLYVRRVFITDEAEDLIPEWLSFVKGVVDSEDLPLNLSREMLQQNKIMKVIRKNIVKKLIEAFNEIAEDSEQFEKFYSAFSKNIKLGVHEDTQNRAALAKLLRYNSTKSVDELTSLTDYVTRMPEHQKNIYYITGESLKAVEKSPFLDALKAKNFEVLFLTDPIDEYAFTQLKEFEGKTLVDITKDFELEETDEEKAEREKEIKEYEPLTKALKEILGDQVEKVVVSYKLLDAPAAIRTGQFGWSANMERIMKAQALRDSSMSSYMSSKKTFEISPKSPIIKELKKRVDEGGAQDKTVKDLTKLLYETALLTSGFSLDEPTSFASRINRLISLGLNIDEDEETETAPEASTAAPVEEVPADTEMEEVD
Description: The biochemical activity of the compounds can in particular be evaluated by means of the “Hsp82/ATPase” test described below:
The inorganic phosphate released during the hydrolysis of ATP by the ATPase activity of Hsp82 is quantified by the malachite green method. In the presence of this reagent, formation of the inorganic phosphate-molybdate-malachite green complex, which absorbs at a wavelength of 620 nm, occurs.
The products to be evaluated are incubated in a reaction volume of 30 μl, in the presence of 1 μM Hsp82 and of 250 μM of substrate (ATP) in a buffer composed of 50 mM Hepes-NaOH (pH 7.5), 1 mM DTT, 5 mM MgCl2 and 50 mM KCl at 37° C. for 60 min. In parallel, an inorganic phosphate range of between 1 and 40 μM is made up in the same buffer. […] The inorganic phosphate concentration of each sample is then calculated from the standard curve. The ATPase activity of Hsp82 is expressed as concentration of inorganic phosphate produced in 60 minutes. The effect of the various products tested is expressed as percentage inhibition of the ATPase activity.
The formation of ADP due to the ATPase activity of Hsp82 was used to develop another method for evaluating the enzyme activity of this enzyme by application of an enzymatic coupling system involving pyruvate kinase (PK) and lactate dehydrogenase (LDH). In this kinetic-type spectrophotometric method, PK catalyses the formation of ATP and of pyruvate from phosphoenol pyruvate (PEP) and the ADP produced by Hsp82. The pyruvate formed, which is a substrate for LDH, is subsequently converted to lactate in the presence of NADH. In this case, the decrease in the NADH concentration, measured through the decrease in absorbance at the wavelength of 340 nm, is proportional to the concentration of ADP produced by Hsp82.
The products tested are incubated in a reaction volume of 100 μl of buffer composed of 100 mM Hepes-NaOH (pH 7.5), 5 mM MgCl2, 1 mM DTT, 150 mM KCl, 0.3 mM NADH, 2.5 mM PEP and 250 μM ATP. This mixture is preincubated at 37° C. for 30 minutes before the addition of 3.77 units of LDH and 3.77 units of PK. The reaction is initiated by addition of the product to be evaluated, in varying concentrations, and of Hsp82, at the concentration of 1 μM. The enzymatic activity of Hsp82 is then measured continuously, in a microplate reader, at 37° C., at the wavelength of 340 nm. The initial rate of the reaction is obtained by measuring the slope of the tangent to the origin of the curve recorded. The enzymatic activity is expressed in μM of ADP formed per minute. The effect of the various products tested is expressed as 50% inhibitory concentration (1050) with respect to the ATPase activity, according to the codification below: […]

melting point | IC50 [1] | IC50 (Hsp82) | Structure (SMILES)
170 to 172 °C | < 1000 nM |  | Cc1nn(-c2ccc(C(N)=O)c(NC3CC4CCC3O4)c2)c2cccc(-c3cnc4ccccc4c3)c12 (stereo not drawn) [Example 14, 4-(3-methyl-4-quinolin-3-ylindazol-1-yl)-2-[exo-(7-oxabicyclo[2.2.1]hept-2-yl)amino]benzamide]
 | < 1000 nM | < 1000 nM | Cc1nn(-c2ccc(C(N)=O)c(NCC(C)(C)O)c2)c2cccc(-c3cnc4ccccc4c3)c12 [Example 5, 2-(2-hydroxy-2-methylpropylamino)-4-(3-methyl-4-quinolin-3-ylindazol-1-yl)benzamide]
